Measurements from patent US6841661B2, “Glycopeptide antibacterial compounds, compositions containing same and methods of using same” (Princeton Univerisity, priority 1999, dated 2005).
In brackets after ≈: the same amount, converted by molar mass. Like-named read-outs stand apart in the source and are kept apart here.

What was measured:
[1] = system: E. faecium CL 5242 (VanA); assay: microbe, parasite or virus in culture; type: cell-based; design: CL5242 (in vitro testing): unit not given here; conditions: for CL5242 (in vitro testing): Tables 7 and 8, unit not given
In short: (§1)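 NCCLS M7-A4-based broth microdilution with twofold serial dilutions, incubated at 35° C; medium BHI for enterococci and VISA/MRSA, cation-adjusted Mueller-Hinton for E. coli. Inoculum about 1-5×10^6 CFU/ml (enterococci) or 3-7×10^5 CFU/ml (others); MIC is lowest concentration with no visible growth, read at 18-20 hr for E. coli, 22-24 hr otherwise.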

[2] = system: E. faecium CL 5053 (VanA); assay: microbe, parasite or virus in culture; type: cell-based; design: CL5053 (in vitro testing): unit not given here; conditions: for CL5053 (in vitro testing): Tables 7 and 8, unit not given
In short: as §1

[3] = system: E. faecium CL 4931 (VanA); assay: microbe, parasite or virus in culture; type: cell-based; design: CL4931 (in vitro testing): unit not given here; conditions: for CL4931 (in vitro testing): Tables 7 and 8, unit not given
In short: as §1

[4] = system: CL 4931, CL 5053, CL 5242 and CL 4877; type: cell-based, E. faecium, E. faecalis; design: unit not given here
In short: (§2)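 Twofold broth microdilution per modified NCCLS M7-A4, 35 °C. Enterococci and VISA/MRSA in BHI (VISA/MRSA precultured in TSB + 10% HS), E. coli in MH II. Inocula ~1-5×10^6 CFU/ml for enterococci, ~3-7×10^5 CFU/ml otherwise. MIC is the lowest concentration with no visible growth, read at 18-20 hr (E. coli) or 22-24 hr.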

[5] = system: E. faecalis CL 4877 (VanB); assay: microbe, parasite or virus in culture; type: cell-based; design: CL4877 (in vitro testing): unit not given here; conditions: for CL4877 (in vitro testing): Tables 7 and 8, unit not given
In short: as §2

[6] = mean of CL4931, CL5053, CL5242, CL4877, unit not given

SMILES	CL5242 (in vitro testing) [1]	CL5053 (in vitro testing) [2]	CL4931 (in vitro testing) [3]	Mean [4, 6]	CL4877 (in vitro testing) [5]	MIC, CL5242 ([1]; Table 9, E. faecium CL 5242 (VanA)) [µg/mL]	MIC, CL5053 ([2]; Table 9, E. faecium CL 5053 (VanA)) [µg/mL]	MIC, CL4931 ([3]; Table 9, E. faecium CL 4931 (VanA)) [µg/mL]	Mean ([4]; Table 9, mean MIC over CL4931, CL5053, CL5242, CL4877)	MIC, CL4877 ([5]; Table 9, E. faecalis CL 4877 (VanB)) [µg/mL]
CNC(CC(C)C)C(=O)NC1C(=O)NC(CC(N)=O)C(=O)NC2C(=O)NC3C(=O)NC(C(=O)NC(C(=O)O)c4cc(O)cc(O)c4-c4cc3ccc4O)C(O)c3ccc(c(Cl)c3)Oc3cc2cc(c3OC2OC(CNCCCN)C(O)C(O)C2OC2CC(C)(NCc3ccc(OCc4ccc(Cl)c(Cl)c4)cc3)C(O)C(C)O2)Oc2ccc(cc2Cl)C1O (stereo not drawn) [Compound 161]	4	16	16	13.0	16	–	–	–	–	–
CNC(CC(C)C)C(=O)NC1C(=O)NC(CC(N)=O)C(=O)NC2C(=O)NC3C(=O)NC(C(=O)NC(C(=O)O)c4cc(O)cc(O)c4-c4cc3ccc4O)C(O)c3ccc(c(Cl)c3)Oc3cc2cc(c3OC2OC(CN3CCC(N(C)C)CC3)C(O)C(O)C2OC2CC(C)(NCc3ccc(OCc4ccc(Cl)c(Cl)c4)cc3)C(O)C(C)O2)Oc2ccc(cc2Cl)C1O (stereo not drawn) [Compound 170]	8	32	16	22.0	32	–	–	–	–	–
CNC(CC(C)C)C(=O)NC1C(=O)NC(CC(N)=O)C(=O)NC2C(=O)NC3C(=O)NC(C(=O)NC(C(=O)O)c4cc(O)cc(O)c4-c4cc3ccc4O)C(O)c3ccc(c(Cl)c3)Oc3cc2cc(c3OC2OC(CN)C(O)C(O)C2OC2CC(C)(NCc3ccc(OCc4ccc(C(F)(F)F)cc4)cc3)C(O)C(C)O2)Oc2ccc(cc2Cl)C1O (stereo not drawn) [Compound 179]	1	8	8	3.25	4	–	–	–	–	–
CNC(CC(C)C)C(=O)NC1C(=O)NC(CC(N)=O)C(=O)NC2C(=O)NC3C(=O)NC(C(=O)NC(C(=O)O)c4cc(O)cc(O)c4-c4cc3ccc4O)C(O)c3ccc(c(Cl)c3)Oc3cc2cc(c3OC2OC(CNCCC#N)C(O)C(O)C2OC2CC(C)(NCc3ccc(OCc4ccc(Cl)c(Cl)c4)cc3)C(O)C(C)O2)Oc2ccc(cc2Cl)C1O (stereo not drawn) [Compound 157]	4	16	16	10.0	4	–	–	–	–	–
CNC(CC(C)C)C(=O)NC1C(=O)NC(CC(N)=O)C(=O)NC2C(=O)NC3C(=O)NC(C(=O)NC(C(=O)O)c4cc(O)cc(O)c4-c4cc3ccc4O)C(O)c3ccc(c(Cl)c3)Oc3cc2cc(c3OC2OC(CNCC3CCCO3)C(O)C(O)C2OC2CC(C)(NCc3ccc(-c4ccc(Cl)cc4)cc3)C(O)C(C)O2)Oc2ccc(cc2Cl)C1O (stereo not drawn) [Compound 192]	–	–	–	–	–	4 (≈ 2.31 µM)	16 (≈ 9.23 µM)	16 (≈ 9.23 µM)	13.0	16 (≈ 9.23 µM)
CNC(CC(C)C)C(=O)NC1C(=O)NC(CC(N)=O)C(=O)NC2C(=O)NC3C(=O)NC(C(=O)NC(C(=O)O)c4cc(O)cc(O)c4-c4cc3ccc4O)C(O)c3ccc(c(Cl)c3)Oc3cc2cc(c3OC2OC(CN)C(O)C(O)C2OC2CC(C)(NCc3ccc(C(=O)Oc4ccc(Cl)cc4)cc3)C(O)C(C)O2)Oc2ccc(cc2Cl)C1O (stereo not drawn) [Compound 187]	4	16	16	17	32	–	–	–	–	–
CNC(CC(C)C)C(=O)NC1C(=O)NC(CC(N)=O)C(=O)NC2C(=O)NC3C(=O)NC(C(=O)NC(C(=O)O)c4cc(O)cc(O)c4-c4cc3ccc4O)C(O)c3ccc(c(Cl)c3)Oc3cc2cc(c3OC2OC(CNCc3ccc(N)cc3)C(O)C(O)C2OC2CC(C)(NCc3ccc(OCc4ccc(Cl)c(Cl)c4)cc3)C(O)C(C)O2)Oc2ccc(cc2Cl)C1O (stereo not drawn) [Compound 133]	0.5	2	2	1.1	0.03	–	–	–	–	–
CNC(CC(C)C)C(=O)NC1C(=O)NC(CC(N)=O)C(=O)NC2C(=O)NC3C(=O)NC(C(=O)NC(C(=O)O)c4cc(O)cc(O)c4-c4cc3ccc4O)C(O)c3ccc(c(Cl)c3)Oc3cc2cc(c3OC2OC(CNCC3CCCO3)C(O)C(O)C2OC2CC(C)(NCc3ccc(OCc4ccc(Cl)c(Cl)c4)cc3)C(O)C(C)O2)Oc2ccc(cc2Cl)C1O (stereo not drawn) [Compound 142]	2	8	4	4.0	2	–	–	–	–	–
CNC(CC(C)C)C(=O)NC1C(=O)NC(CC(N)=O)C(=O)NC2C(=O)NC3C(=O)NC(C(=O)NC(C(=O)O)c4cc(O)cc(O)c4-c4cc3ccc4O)C(O)c3ccc(c(Cl)c3)Oc3cc2cc(c3OC2OC(CN3CCCC3)C(O)C(O)C2OC2CC(C)(NCc3ccc(OCc4ccc(Cl)c(Cl)c4)cc3)C(O)C(C)O2)Oc2ccc(cc2Cl)C1O (stereo not drawn) [Compound 163]	4	32	16	13.5	2	–	–	–	–	–
